# Laboratory results published in US20120107323A1, “KINASE PROTEIN BINDING INHIBITORS” (University of Florida, priority 2009, published 2012).
# Columns and labels:
# [1] = system: TE3 esophageal cancer cells; assay: Cell viability (MTT), TE3; format: cell-based; settings: TE3, 72 hours; read-out: IC50 of INT2-31, cell viability
# Protocol: (§1) Cell viability (MTT) and CFSE Proliferation assay: Cells were plated in 96-well plates and let adhere overnight. After cell treatment, cell viability was measured by 3-(4,5-dimethylthiazol-2-yl)-2,5-diphenyl tetrazolium bromide (MTT) assay (CellTiter 96® Aqueous, Promega, Madison, Wis.).
# (§2) Cell viability and detachment assays: After cells were treated with siRNA transfection, cell viability was measured by 3-(4,5-dimethylthiazol2-yl)-2,5-diphenyl tetrazolium bromide (MTT) assay (CellTiter 96® AQueous, Promega, Madison, Wis.). Briefly, 20 μl of the tetrazolium compound was added to each well. The cells were then incubated at 37° C. for 1 h. The plate was read at 490 nm with a plate reader to determine the viability. In detachment assays, detached and attached cells were harvested separately and counted in a hemocytometer. The percentage of detachment was calculated by dividing the number of detached cells by the total number of cells. Apoptosis assays: After treatment, attached and detached cells were collected, counted and prepared for terminal uridine deoxynucleotidyl transferase (TUNEL) assay by utilizing an APO-BRDU kit (BD Pharmingen, San Diego, Calif.) according to the manufacturer's instructions. Stained cells were analyzed with a fluorescence-activated cell sorting-Calibur flow cytometer (BD Biosciences). […] Apoptotic cells were also analyzed by Hoechst staining. […]
# [2] = system: TE9 esophageal cancer cells; assay: Cell viability (MTT), TE9; format: cell-based; settings: TE9, 72 hours; read-out: IC50 of INT2-31, cell viability
# Protocol: as §1, §2
# [3] = system: esophageal patient #5 cells; assay: Cell viability (MTT), esophageal patient #5 cells; format: cell-based; settings: Homo sapiens, average IC50
# Protocol: as §1
# To assimilate the effects of targeting the interaction of these proteins in direct patient specimens, a system was developed in which direct esophageal cancer specimens were grown in mice and tissue culture plates to allow fresh human tissue for experimentation. More than 20 tumors and corresponding normal tissue specimens have been obtained from cancer patients. […] To evaluate the in vitro effects of INT2-31 on patient specimens, we utilized MTT assay of cells grown in a tissue culture plate maximum up to eight passages were utilized.
# C8161 melanoma cells [4] = assay: Detachment assay, C8161 cells; format: cell-based, human; settings: C8161, 5 μM, 72 h
# Protocol: In detachment assays, detached and attached cells were harvested separately and counted in a hemocytometer. The percentage of detachment was calculated by dividing the number of detached cells by the total number of cells.
# Detachment assay: Cells were plated with and without compound for 24, 48, and 72 h, and detached and attached cells were counted in a hemocytometer. The percent of detachment was calculated by dividing the number of detached cells by the total number of cells and experiments performed in triplicate. Apoptosis assays: After treatment, attached and detached cells were collected, counted and prepared for terminal uridine deoxynucleotidyl transferase (TUNEL) assay by utilizing an APO-BRDU kit (BD Pharmingen, San Diego, Calif.) and cells analyzed with a FACSCalibur cytometer (Becton Dickinson, San Jose, Calif.). In addition, apoptotic cells were analyzed with Hoechst 33342 staining (1 μg/ml). The percent of apoptotic cells was calculated as the ratio of apoptotic cells to total number of cells.
# C8161 melanoma cells [5] = assay: Cell counts, C8161; format: cell-based, human
# C8161 subcutaneous tumor = assay: C8161 melanoma xenograft in nude mice; format: in vivo
# Protocol: Kinase Profiler Screening: Kinase specificity screening was performed with Invitrogen's SelectScreen® Kinase Profiling Services http://www.invitrogen.com/site/us/en/home/Products-and-Services/Services/Discoverv-Research/SelectScreen-Profiling-Service/SelectScreen-Kinase-Profiling-Service.html. The screening was performed with 1 μM compound, INT2-31, 10 μM ATP, and kinase substrates against ten recombinant kinases according to Z′-LYTET™ Kinase Assay. For PI3 kinase activity, 100 μM ATP, and kinase substrate were utilized with the Invitrogen Adapta® Universal Kinase Assay protocol. Tumor Growth in Nude Mice in vivo: Six week old athymic, female nude mice were purchased from Harlan Laboratory. The mice were maintained in the animal facility, and all experiments were performed in compliance with NIH animal-use guidelines and under an IACUC approved protocol. Melanoma cells were injected, 5×10^6 cells, subcutaneously. When the tumor size reached 100 mm^3, the INT2-31 was introduced by intraperitoneal injection at a dose of 15 mg/kg daily for 21 days. Tumor diameters were measured with calipers, and tumor volume in mm^3 was calculated using the formula [(width)^2×length]/2. At the end of experiment, tumor weight and volume were determined.
# For the melanoma study, the University of Florida IACUC approved the following protocol (IACUC Study #200801077). Melanoma cells were injected, 5×10^6 cells, subcutaneously. When the tumor size reached 100 mm^3, the INT2-31 was introduced by intraperitoneal injection at a dose of 15 mg/kg daily. Tumor diameters were measured with calipers, and tumor volume in mm^3 was calculated using the formula [(width)^2×length]/2. At the end of experiment, tumor weight and volume were determined.
# Immunohistochemistry: Xenograft tumor tissue was fixed in 10% formalin and embedded in paraffin. For Ki-67 staining, samples underwent deparaffinization and antigen retrieval and incubated with the primary antibody, Ki-67 (Dako M7240), at 1:200 concentration overnight at 4° C. The tissues were stained with the chromogen DAB and counterstained with hematoxylin and 1% TBS.
# For assessment of apoptotic cells, staining was performed utilizing the Dead End™ Calorimetric TUNEL System (Promega, Madison, Wis.) according to instructions from the manufacturer. Percent apoptotic cells were determined from counting at least 400 cells in a high power field.
smiles,measurement,setting,value
"CSc1ncnc2c1ccn2C1O[C@H](COP(=O)(O)O)[C@@H](O)[C@H]1O (stereo partly drawn) [INT2-31, 4-(Methylthio)-7-(5-O-phosphono-D-ribofuranosyl)-{7H-Pyrrolo[2,3-d]pyrimidine}]",IC50,[1],5.6 µM
same,IC50,[2],3.6 µM
same,IC50,[3],2180 nM
same,cells detached from the plate,C8161 melanoma cells [4],7%
same,"growth, cell numbers",C8161 melanoma cells [5],potent time and dose dependent inhibition
same,phosphorylation of AKT in tumor,"C8161 subcutaneous tumor; 15 mg/kg vs PBS control, Western blot",decrease in phosphorylation of AKT
same,subcutaneous tumor growth compared to PBS control,"C8161 subcutaneous tumor; C8161, 15 mg/kg daily intraperitoneal, 21 days, p<0.05",significant decrease
same,body weights between animals in each group,"C8161 subcutaneous tumor; C8161 and A375 xenograft mice, 15 mg/kg",no significant difference
same,intensity of Ki67 staining,"C8161 subcutaneous tumor; C8161 tumors, 15 mg/kg vs PBS",significantly decreased
same,percent of cells reactive to Ki67,"C8161 subcutaneous tumor; C8161 tumors, 15 mg/kg vs PBS",significantly decreased
same,percent of cells undergoing apoptosis (TUNEL),"C8161 subcutaneous tumor; C8161 tumors, 15 mg/kg vs control, p<0.05",significantly increased
same,"densitometry, mean ratio of IGF-1R to FAK in tumor","C8161 subcutaneous tumor; C8161 tumors, immunoprecipitation of FAK, PBS 0.98+/−0.11, p=0.09",0.78+/−0.16
